Tests used:
[1] = test system: SR (Leukemia); test: NCI-60 screen (SRB, 48 h); assay type: cell-based
[2] = test system: MDA-MB-435 (Melanoma); test: NCI-60 screen (SRB, 48 h); assay type: cell-based; details: Homo sapiens
[3] = test system: OVCAR-4 (Ovarian cancer); test: NCI-60 screen (SRB, 48 h); assay type: cell-based; details: Homo sapiens
[4] = test system: CNS cancer subpanel; test: NCI-60 screen, subpanel; details: Homo sapiens
[5] = test system: Prostate cancer subpanel; test: NCI-60 screen, subpanel; details: Homo sapiens
[6] = test system: K-562 (Leukemia); test: NCI-60 screen (SRB, 48 h); details: Homo sapiens
[7] = test system: RPMI-8226 (Leukemia); test: NCI-60 screen (SRB, 48 h); details: Homo sapiens
[8] = test system: EKVX (NSC lung cancer); test: NCI-60 screen (SRB, 48 h); details: Homo sapiens
[9] = test system: NCI-H522 (NSC lung cancer); test: NCI-60 screen (SRB, 48 h); details: Homo sapiens
[10] = test system: HT29 (Colon cancer); test: NCI-60 screen (SRB, 48 h); details: Homo sapiens
[11] = test system: KM12 (Colon cancer); test: NCI-60 screen (SRB, 48 h); details: Homo sapiens
[12] = test system: SF-268 (CNS cancer); test: NCI-60 screen (SRB, 48 h); details: Homo sapiens
[13] = test system: SF-539 (CNS cancer); test: NCI-60 screen (SRB, 48 h); details: Homo sapiens
[14] = test system: MALME-3M (Melanoma); test: NCI-60 screen (SRB, 48 h); details: Homo sapiens
[15] = test system: SK-MEL-28 (Melanoma); test: NCI-60 screen (SRB, 48 h)
[16] = test system: SK-MEL-5 (Melanoma); test: NCI-60 screen (SRB, 48 h); details: Homo sapiens
[17] = test system: UACC-257 (Melanoma); test: NCI-60 screen (SRB, 48 h); details: Homo sapiens
[18] = test system: OVCAR-8 (Ovarian cancer); test: NCI-60 screen (SRB, 48 h); details: Homo sapiens
[19] = test system: NCI/ADR-RES (Ovarian cancer); test: NCI-60 screen (SRB, 48 h); details: Homo sapiens
[20] = test system: 786-0 (Renal cancer); test: NCI-60 screen (SRB, 48 h); details: Homo sapiens
[21] = test system: HS 578T (Breast cancer); test: NCI-60 screen (SRB, 48 h); details: Homo sapiens
[22] = test system: T-47D (Breast cancer); test: NCI-60 screen (SRB, 48 h); details: Homo sapiens, T47D

C[C@H]1[C@H](C)CC[C@]2(CO)CC[C@]3(C)C(=CC[C@@H]4[C@@]5(C)CCCNC(C)(C)[C@@H]5CC[C@]43C)[C@H]12 [Compound 4, azepanouvaol]
TGI [1]: 3.13 µM | GI50 ([1]; Homo sapiens): 1.18 µM | GI50 ([2]; MDA-MB-435): 1.59 µM | IC (TGI) ([2]; MDA-MB-435, 48 h, read-out: TGI): 3.21 µM | CC50 ([2]; MDA-MB-435, read-out: LC50 (the source's name)): 6.49 µM | IC (TGI) ([3]; OVCAR-4, 48 h): 3.79 µM | GI50 ([3]; OVCAR-4, read-out: GI50): 1.72 µM | IC (TGI) ([4]; 48 h, read-out: TGI MG_MID): 3.2 µM | GI50 ([4]; read-out: GI50 MG_MID): 1.69 µM | CC50 ([4]; read-out: LC50 MG_MID): 6.06 µM | IC (TGI) ([5]; 48 h, read-out: TGI MG_MID): 3.06 µM | GI50 ([5]; read-out: GI50 MG_MID): 1.64 µM | CC50 ([5]; read-out: LC50 MG_MID): 5.7 µM | GI50 ([6]; K562): 0.47 µM | IC (TGI) ([6]; K562, 48 h, read-out: TGI): 2.02 µM | CC50 ([6]; K562, read-out: LC50): 6.68 µM | GI50 ([7]; RPMI-8226): 1.85 µM | IC (TGI) ([7]; RPMI-8226, 48 h, read-out: TGI): 4.15 µM | CC50 ([7]; RPMI-8226, read-out: LC50): 9.27 µM | GI50 [8]: 1.66 µM | IC (TGI) ([8]; 48 h, read-out: TGI): 3.29 µM | CC50 ([8]; read-out: LC50): 6.53 µM | GI50 ([9]; NCI-H522): 1.71 µM | IC (TGI) ([9]; NCI-H522, 48 h, read-out: TGI): 3.32 µM | CC50 ([9]; NCI-H522, read-out: LC50): 6.43 µM | GI50 ([10]; HT-29): 0.63 µM | IC (TGI) ([10]; HT-29, 48 h, read-out: TGI): 1.97 µM | CC50 ([10]; HT-29, read-out: LC50): 4.85 µM | GI50 ([11]; KM12): 1.84 µM | IC (TGI) ([11]; KM12, 48 h, read-out: TGI): 3.51 µM | CC50 ([11]; KM12, read-out: LC50): 6.68 µM | GI50 ([12]; SF-268): 1.79 µM | IC (TGI) ([12]; SF-268, 48 h, read-out: TGI): 3.5 µM | CC50 ([12]; SF-268, read-out: LC50): 6.84 µM | GI50 ([13]; SF-539): 1.69 µM | IC (TGI) ([13]; SF-539, 48 h, read-out: TGI): 3.16 µM | CC50 ([13]; SF-539, read-out: LC50): 5.9 µM | GI50 [14]: 1.68 µM | IC (TGI) ([14]; 48 h, read-out: TGI): 3.44 µM | CC50 ([14]; read-out: LC50): 7.08 µM | GI50 ([15]; Homo sapiens, SK-MEL-28): 1.75 µM | IC (TGI) ([15]; Homo sapiens, SK-MEL-28, 48 h, read-out: TGI): 3.3 µM | CC50 ([15]; Homo sapiens, SK-MEL-28, read-out: LC50): 6.22 µM | Growth % of the Most Sensitive Cell Lines ([15]; SK-MEL-28, 1 dose 10 µM): −84.86% | GI50 ([16]; SK-MEL-5): 1.7 µM | IC (TGI) ([16]; SK-MEL-5, 48 h, read-out: TGI): 3.09 µM | CC50 ([16]; SK-MEL-5, read-out: LC50): 5.62 µM | GI50 ([17]; UACC-257): 1.95 µM | IC (TGI) ([17]; UACC-257, 48 h, read-out: TGI): 3.7 µM | CC50 ([17]; UACC-257, read-out: LC50): 7.01 µM | GI50 ([18]; OVCAR-8): 1.96 µM | IC (TGI) ([18]; OVCAR-8, 48 h, read-out: TGI): 3.61 µM | CC50 ([18]; OVCAR-8, read-out: LC50): 6.67 µM | GI50 [19]: 1.76 µM | IC (TGI) ([19]; 48 h, read-out: TGI): 3.47 µM | CC50 ([19]; read-out: LC50): 6.84 µM | GI50 ([20]; 786-0): 1.6 µM | IC (TGI) ([20]; 786-0, 48 h, read-out: TGI): 3.06 µM | CC50 ([20]; 786-0, read-out: LC50): 5.85 µM | GI50 [21]: 2.05 µM | IC (TGI) ([21]; 48 h, read-out: TGI): 4.86 µM | CC50 ([21]; read-out: LC50): 32.6 µM | GI50 [22]: 1.68 µM | IC (TGI) ([22]; 48 h, read-out: TGI): 4.03 µM | CC50 ([22]; read-out: LC50): 9.66 µM
